Experimental data reported in paper PMC6057649, “Development of NanoLuc-PEST expressing Leishmania mexicana as a new drug discovery tool for axenic- and intramacrophage-based assays” (PLoS Neglected Tropical Diseases, 2018).
pEC50: −log10 of the molar value.

System: NanoLuc-PEST expressing L. mexicana axenic amastigotes
Assay: microbe, parasite or virus in culture
Format: cell-based
Conditions: for Relative Bioluminescence (%) / viability at 2 µM / viability at 10 µM: 72 hours, relative to DMSO only control, n = 4; for viability at 2 µM / viability at 10 µM: Leishmania mexicana, read-out: Relative Bioluminescence (%); for pEC50: hit compounds from the axenic amastigote screen, S3 Table, read-out: EC50, Axenic Amastigotes

Compound	Relative Bioluminescence (%) (2 µM compound)	Relative Bioluminescence (%) (10 µM compound)	viability at 2 µM (2 µM compound) [%]	viability at 10 µM (10 µM compound) [%]	pEC50
O=C(NC1CCCCC1)N1CCN(Cc2ccc3c(c2)OCO3)CC1 [MMV676444]	89.21	81.76	–	–	–
CCC(NC(=O)c1ccccc1NC(=O)c1ccc(C)cc1)C(=O)OC (stereo not shown) [MMV019551]	70.29	42.20	–	–	–
Nc1c2c(nc3sc4c(c13)CCCC4)CCCC2 [MMV676588]	70.58	69.13	–	–	–
O=C(NC1CC1)c1ccc(N2CCOc3ccc(Cl)cc32)s1 [MMV020537]	116.22	146.04	–	–	–
CC[C@@H](CO)NCCN[C@@H](CC)CO [MMV687801, Ethambutol, reference compound]	–	–	98.6	127	–
COC(=O)c1cccc2oc(-c3cccc(OC)c3NC(=O)c3cc(-c4ccccc4)on3)nc12 [MMV676186]	83.95	21.54	–	–	–
COc1ccccc1CNC(=O)c1cc(C2CC2)nc2c1cnn2C(C)C [MMV020517]	97.70	63.10	–	–	–
COc1ccc(-c2onc(C(F)(F)F)c2-c2ccc(Cl)cc2)c(O)c1 [MMV688766]	82.40	-2.36	–	–	–
O=C(NCCc1c[nH]c2ccccc12)c1cc2ccccc2oc1=O [MMV676539]	54.78	62.48	–	–	–
CC(C)C(Oc1cccc2ccccc12)C(=O)O (stereo not shown) [MMV676191]	107.96	94.76	–	–	–
COc1ccc(N(CCc2cccc(C)n2)C(C)=O)cc1 [MMV675995]	51.88	31.11	–	–	–
CC1(O)CC(c2nc(-c3ccc4ccc(-c5ccccc5)nc4c3)c3c(N)nccn23)C1 (stereo not shown) [MMV676605]	81.06	84.63	–	–	–
NCC(=O)N1CCn2c(nc(-c3ccccc3)c2Nc2ccc3c(c2)OCO3)C1 [MMV011691]	105.27	73.17	–	–	–
O=C(NCc1ccco1)N1CCN(Cc2ccc(Cl)s2)CC1 [MMV688555]	63.56	83.23	–	–	–
O=C([C@@H](c1ccc(Cl)cc1)c1cccnc1)N1CCN(c2ccc(C(F)(F)F)cc2)CC1 [MMV689244]	23.97	0.66	–	–	–
COc1cc2ncnc(NC3CCN(Cc4ccccc4)CC3)c2cc1OC [MMV006741]	83.56	113.49	–	–	–
COc1ccc(OC(C)C(=O)Nc2ccc(Cl)cc2C)cc1 (stereo not shown) [MMV202458]	83.71	79.97	–	–	–
CC1COC(Cn2cncn2)(c2ccc(Oc3ccc(Cl)cc3)cc2Cl)O1 (stereo not shown) [MMV688943, Difenoconazol]	26.19	8.96	–	–	–
Nc1ncnc2c1ncn2[C@@H]1O[C@H](COS(=O)(=O)NC(=O)c2ccccc2O)[C@@H](O)[C@H]1O [MMV687700]	67.55	61.64	–	–	–

Compound	Relative Bioluminescence (%) (2 µM compound)	Relative Bioluminescence (%) (10 µM compound)	viability at 2 µM (2 µM compound) [%]	viability at 10 µM (10 µM compound) [%]	pEC50
CN1CCC(c2cc(-c3ccncc3)c(-c3ccc(F)cc3)[nH]2)CC1 [MMV688703]	74.84	81.84	–	–	–
CCc1ccc(C(NCc2nc(N)nc(N(C)C)n2)C(C)C)cc1 (stereo not shown) [MMV1019989]	59.90	45.92	–	–	–
OCc1ccc(-c2cncc(Nc3cccc(Cl)c3)c2)cc1 [MMV026468]	116.14	104.46	–	–	–
CCOC(=O)c1c(NC(=O)c2c(F)c(F)c(F)c(F)c2F)sc(C(N)=O)c1C [MMV153413]	4.50	0.97	–	–	6.28
COc1cccc(NC(=O)c2c(NC(=O)c3cccnc3)sc3c2CCC3)c1 [MMV228911]	73.96	11.53	–	–	–
CCC(Sc1nc2ccccc2o1)C(=O)Nc1nccs1 (stereo not shown) [MMV676383]	136.33	127.92	–	–	–
COc1cc(OC)cc(C(=O)NCC2Cc3cc(Cl)cc(-c4ccncc4)c3O2)c1 (stereo not shown) [MMV007471]	87.80	69.68	–	–	–
COc1cc(C2=NCCN2)ccc1-c1cn(-c2cccc(C3=NCCN3)c2)nn1 [MMV688407]	99.20	50.94	–	–	–
O=C(Nc1n[nH]c(=S)s1)c1cc(Br)ccc1Cl [MMV676492]	60.28	23.83	–	–	–
CN(C)c1cc(NC(=O)Nc2ccccc2)c2ccccc2n1 [MMV006901]	96.82	107.15	–	–	–
Nc1nccc2ccc(-c3ccc4nccn4c3)cc12 [MMV023233]	106.85	120.49	–	–	–
Nc1nccc2ccc(Oc3ccncc3)cc12 [MMV026313]	56.90	66.48	–	–	–
CCn1cnc2c(Nc3cc(F)cc(F)c3)nc(C#N)nc21 [MMV676881]	76.51	54.00	–	–	–
Cn1ccnc1CNCCS(=O)(=O)c1cccc(Nc2ccc(-c3cccc(F)c3)cn2)c1 [MMV688466]	108.11	117.26	–	–	–
CO[C@H]1/C=C/O[C@@]2(C)Oc3c(C)c(O)c4c(O)c(c(/C=N/N5CCN(C)CC5)c(O)c4c3C2=O)NC(=O)/C(C)=C\C=C\[C@H](C)[C@H](O)[C@@H](C)[C@@H](O)[C@@H](C)[C@H](OC(C)=O)[C@@H]1C [MMV688775, Rifampicin, reference compound]	–	–	47.6	2.74	–
O=C(Nc1nnc(-c2ccc(Cl)cc2)o1)c1cccc(C(F)(F)F)c1 [MMV102872]	0.33	-0.65	–	–	6.09
CS(=O)(=O)N1CCC(Cn2nc(Cc3cccc4ccccc34)c3c(N)ncnc32)CC1 [MMV676050]	74.33	42.99	–	–	–
N#Cc1ccc(-c2ccc(OCC(N)=O)cc2)cc1 [MMV053220]	105.30	82.56	–	–	–
c1ccc(-c2[nH]c3ccccc3c2C(c2ccccn2)N2CCCC2)cc1 (stereo not shown) [MMV688762]	73.33	84.34	–	–	–

Compound	Relative Bioluminescence (%) (2 µM compound)	Relative Bioluminescence (%) (10 µM compound)	viability at 2 µM (2 µM compound) [%]	viability at 10 µM (10 µM compound) [%]	pEC50
CCCCS(=O)(=O)Nc1ccc2cnn(C)c2c1 [MMV687145]	132.61	130.77	–	–	–
Cc1nn(Cc2ccccc2)c(Cl)c1C(=O)NC1CCCCCC1 [MMV063404]	86.21	79.51	–	–	–
N#CCN(CCCCN1CCN(c2ccc(F)cc2)CC1)C(=O)OCc1ccccc1 [MMV675997]	116.18	97.48	–	–	–
Cc1cc(C)n2nc(C(=O)Nc3cc(C(F)(F)F)ccc3N3CCOCC3)nc2n1 [MMV019087]	89.61	89.32	–	–	–
CN1CCN(CCCOc2ncc(Nc3ncc(-c4ccc(C(F)(F)F)c(F)c4)nc3C(N)=O)cn2)CC1 [MMV687812]	66.08	77.79	–	–	–
Cc1ncc(-c2ccnc(Nc3ccc(S(C)(=O)=O)cc3)n2)n1C(C)C [MMV676604]	81.35	33.57	–	–	–
CN1CCCN(C(c2ccccc2)c2ccc(Cl)cc2)CC1 (stereo not shown) [MMV004168]	64.14	52.89	–	–	–
C[C@H](C(N)=O)N1CCCC[C@@H]1c1ccc(OCc2cccc(F)c2)cc1 [MMV676270]	41.26	18.00	–	–	–
OCCc1ccc(Nc2nccc(-c3nnc4ccccn34)n2)cc1 [MMV028694]	24.99	3.77	–	–	–
[H]/N=C(/N)N[C@H]1[C@H](O)[C@@H](O)[C@H](O[C@@H]2O[C@@H](C)[C@](O)(C=O)[C@H]2O[C@@H]2O[C@@H](CO)[C@H](O)[C@@H](O)[C@@H]2NC)[C@@H](N/C(N)=N\[H])[C@@H]1O [MMV688994, Streptomycin, reference compound]	–	–	94	84.3	–
Cc1nnc(NC(=O)c2cn(-c3ccccc3)nc2-c2ccccc2C)o1 [MMV020320]	47.21	0.21	–	–	–
O=C1COCc2ccc(Br)cc2N1Cc1ccc(C(F)(F)F)cc1 [MMV032995]	97.31	90.22	–	–	–
Cc1cccc(C(=O)Nc2ccnc(N(C)C3CCN(CC(C)C)CC3)c2)c1 [MMV024829]	74.80	69.82	–	–	–
Cc1nc(-c2ccccn2)nc(NCCc2ccc(S(C)(=O)=O)cc2)c1Cl [MMV658993]	93.82	64.93	–	–	–
CCCCN(CCCC)c1c(C#N)cc(S(=O)(=O)Nc2ccccc2)cc1C#N [MMV688467]	6.98	2.46	–	–	5.78
Cc1cc2ccccc2n1CC(=O)N1CC(C(=O)N2CCCCC2)Oc2ccccc21 (stereo not shown) [MMV020520]	108.71	127.42	–	–	–
CC1=NN(c2nc3ccccc3s2)C(=O)C1Cc1cccc2ccccc12 (stereo not shown) [MMV676558]	-0.86	-0.77	–	–	6.33
COc1ccc(-c2nc(-c3cccc(NC(=O)Cc4ccc(F)cc4)c3)no2)cc1OC [MMV676571]	102.29	85.94	–	–	–
c1ccc(C[C@@H]2CN(c3nccc(Oc4ccc(-n5ccnc5)cc4)n3)CCN2)cc1 [MMV687749]	66.01	56.67	–	–	–
